Reference: PubChem BioAssay AID463136 (University of Pittsburgh Molecular Library Screening Center, 2010)
Records with an inconclusive call do not appear.

Key:
[1] = tested on: HCS imaging, dynein-mediated cargo transport inhibition; experiment: blockers of dynein-driven microtubule transport – imaging, high-content imaging, dose response (AID 463136);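 further: mouse mammary adenocarcinoma 3617.4 cells expressing GFP-tagged rat glucocorticoid receptor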; on inhibition: reference of the scale not given here
[2] = as above; conditions: HCS imaging, dynein-mediated cargo transport inhibition; inhibition at max concentration; at 50 µM; stronger effect = higher value

COc1cc(C2Oc3ccccc3C=C2[N+](=O)[O-])cc(OC)c1OC (configuration not stated)
IC50 [1]: 25.5 µM
inhibition [2]: 63.7%

COc1cc(/C=C/C(=O)c2ccc(F)cc2)cc(OC)c1OC
IC50 [1]: 36.7 µM
inhibition [2]: 69.5%

CC(C(Sc1ccccc1N)c1ccccc1)[N+](=O)[O-] (configuration not stated)
IC50 [1]: 24.7 µM
inhibition [2]: 84.4%

COc1ccc(-c2nnc(Sc3nc4ccccc4o3)c3ccccc23)cc1
IC50 [1]: 27.2 µM
inhibition [2]: 88.8%

O=C(Cn1ncc(Cl)c(Cl)c1=O)N1CCN(S(=O)(=O)c2ccc3ccccc3c2)CC1
IC50 [1]: 24.1 µM
inhibition [2]: 65.1%

O=C(NC1CCCC1)C(c1ccc(Cl)cc1)N(Cc1ccc(F)cc1)C(=O)CCl (configuration not stated)
IC50 [1]: 34.8 µM
inhibition [2]: 75.1%

N#CC1=C(N)OC2=C(CC/C2=C\c2ccccc2)C1c1ccccc1 (configuration not stated)
IC50 [1]: 11.1 µM
inhibition [2]: 75.8%

COc1cccc(N2C(=O)NC(=O)/C(=C\c3ccc([N+](=O)[O-])s3)C2=O)c1
IC50 [1]: 13.5 µM
inhibition [2]: 85.4%

Cc1ccc(N2C(=O)NC(=O)/C(=C\C=C\c3ccco3)C2=O)cc1
IC50 [1]: 27.7 µM
inhibition [2]: 108%

COCCCNC(=O)c1ccc2c3c(onc13)-c1ccccc1C2=O
IC50 [1]: 16.7 µM
inhibition [2]: 98.1%

CC(C)N1C/C(=C/c2ccsc2)C(=O)/C(=C/c2ccsc2)C1
IC50 [1]: 40.1 µM
inhibition [2]: 69.2%
